Earlier results, collected in patent US7977431B2, “Dithiocarbamic esters” (LANXESS Deutschland GmbH, priority 2002, dated 2011).

conditions: pKa of the protonated substituent Z of the regulator, not of the regulator itself

Compound | pKa value e Z-H
C/C(Cl)=C/CSC(=S)n1cccc1 [Regulator compound (1), 3-chloro-2-butenyl 1H-pyrrole-1-carbodithioate] | 17.0
C/C(Cl)=C/CSC(=S)n1ccnc1 [Regulator compound (2), 3-chloro-2-butenyl 1H-imidazole-1-carbodithioate] | 14.5
CCN(C(=S)SCc1ccccc1)c1ccccc1 [Regulator compound (3), Benzyl ethyl-(phenyl)dithio-carbamate, reference compound] | 5.1
CCN(C(=S)SC(C)C(=O)OC)c1ccccc1 (stereo not shown) [Regulator compound (4), Methyl 2-({[ethyl-(phenyl)amino]-carbonothioyl}-sulphanyl)-propanoate, reference compound] | 5.1
CCN(C(=S)SC(C(=O)OC)c1ccccc1)c1ccccc1 (stereo not shown) [Regulator compound (5), Methyl ({[ethyl-(phenyl)amino]-carbonothioyl}-sulphanyl)(phenyl) acetate, reference compound] | 5.1
CCN(C(=S)SC/C=C(/C)Cl)c1ccccc1 [Regulator compound (6), reference compound] | 5.1

same assay, conditions: parent form Z-H of substituent Z

Compound | pKa value
O=C1CCCCCN1 [2-azepanone] | 16.6
O=C1CCCCCCN1 [2-azocanone] | 16.6
O=C1CCCCN1 [2-piperidinone] | 16.6
CC(=O)Nc1ccccc1 [N-phenylacetamide] | 16.6
c1ccc2c(c1)[nH]c1ccccc12 [carbazole] | 17
c1cn[nH]c1 [pyrazole] | 14.0
N-(methyl/ethyl)acetamide | 16.6
